From US20080234385A1, “Method For Inhibiting Tnf-Alpha” (CARITAS ST. ELIZABETH'S MEDICAL CENTER, priority 2005, published 2008) come the findings set out here.

Molecules are shown by their SMILES. “Also recorded” adds a separate entry of the source.

In the experiment the test system is LPS-stimulated TNF-α production. As to the kind of experiment: LPS-stimulated TNF-α production by THP-1-derived monocytes (ELISA). The experiment is classed as cell-based, human. The following applies: differentiated THP-1 cells, endotoxin 10 ng/ml, 24 hours; for effect on LPS-stimulated TNF-α production/synthesis (in words): rising concentrations. On the procedure: The human promonocytic THP-1 cell line (American Type Culture Collection, Manassas, Va.) was maintained in suspension culture at 0.25×10^6 cells/ml in RPMI-1640 medium supplemented with 2 mM L-glutamine, 10% fetal bovine serum and 0.05 mM 2-mercaptoethanol in a humidified atmosphere of 5% CO2 in air at 37° C. Differentiation to monocytes (0.25×10^6 cells/ml) was induced by incubating cells with trans-retinoic acid (1 μM), 1.25 dihydroxy cholecalciferol (0.1 μM) and interferon-γ (0.01 mg/l) (Sigma, St. Louis, Mo.). After 3 days, cells were detached using trypsin-EDTA, washed in PBS, and 1×10^6 cells were used for each experimental condition.
Differentiated THP-1 cells were co-incubated with 10 ng/ml of purified Escherichia coli endotoxin (serotype O55: B5, Sigma Chemical Co.) and rising concentrations (0-400 μM) of either melatonin, N-acetyldopamine (NAD) or N-methyldopamine (NMD) or 3-hydroxy-4-methoxy-dopamine (HMP) (Sigma) in RPMI-1640 cell culture medium at 37° C. in a humidified atmosphere supplemented with 5% CO2. After 24-hour incubation, cell supematants were harvested, and TNF-α was measured by a sandwich enzyme linked immunosorbent assay (ELISA), according to the manufacturer's instructions (Quantikine®, R & D systems, Minneapolis, Minn., USA). The lower limit of detection for TNF-α was 1.6 pg/ml. The average intra-assay coefficient of variation for TNF-α was 5%.
Background: An ELISA detects its analyte on a solid surface through an enzyme-linked reagent.

Regarding `CC(=O)NCCc1c[nH]c2ccc(O)cc12` [NAS, N-acetyl-serotonin, reference compound], the “effect on LPS-stimulated TNF-α production/synthesis (in words)” value was “marked decrease in LPS-stimulated TNF-α production, which was dose dependent”.
Consider `CC(=O)NCCc1ccc(O)c(O)c1` [NAD, N-acetyldopamine], for which the “effect on LPS-stimulated TNF-α production/synthesis (in words)” value is on record as “marked decrease in LPS-stimulated TNF-α production, which was dose dependent; also recorded: suppress LPS-stimulated TNF-α synthesis by monocytic cells in a dose-dependent manner”. Besides, the “potency in blocking TNF-α production compared with NMD, HMP and melatonin” value (low-dose (1-20 μM, FIG. 1)) is “more potent in blocking TNF-α production”.
Turning to `COc1ccc2[nH]cc(CCNC(C)=O)c2c1` [melatonin, reference compound], the “effect on LPS-stimulated TNF-α production/synthesis (in words)” value is “marked decrease in LPS-stimulated TNF-α production, which was dose dependent”.
Still for that read-out and setting: for `CNCCc1ccc(O)c(O)c1` [NMD, N-methyldopamine] the value was “suppress LPS-stimulated TNF-α synthesis by monocytic cells in a dose-dependent manner”.
